Legend:
Type in all cases: in vivo, human
cytomegalovirus = assay: IIF of patients' blood immunocytes: cells infected with cytomegalovirus
Procedure: (§1) The task set is addressed through a diagnostic method for the prediction of the development and control of the effectiveness of the treatment of cardiovascular, in which patient tissue samples are taken (immunocytes and erythrocytes from venous and capillary blood, smears and prints from atherosclerotic plaques after surgical intervention, and cells from urinary and salivary sediment), microdrugs are prepared, specific anti-viral immunoglobulins are processed (for types 1 and 2 herpes viruses, the cytomegalovirus, the herpes Zoster virus, the Epstein-Barr virus, the herpes 6 virus, or the combinations thereof), the number of cells infected by two or more viruses before the beginning of treatment, during treatment, and after treatment are determined with the application of anti-viral therapy, and the dynamic of the change in the number of infected cells and their interrelationships are established: if the number of cells infected by two or more viruses, among which cytomegalovirus must be found, exceeds 50±10% in patients with cardiovascular disease, a diagnostic conclusion of the threat of atherosclerosis complications such as myocardial infarction and stroke, as well as of complications such as arrhythmia, thrombic embolisms, severe left ventricular failure, repeated myocardial infarction, cardiogenic shock, and a high possibility of a fatal result; the method can also be used in patients with cardiovascular diseases after treatment through a method of a combination of traditional methods and the use of anti-viral drugs and a change is seen in the percentage of infected cells after treatment if the number of cells infected by two or more viruses decreases by more than 20±10% in repeat diagnostics, the treatment is considered successful, whereas if a decrease by 20±10% in the number of cells infected by cytomegalovirus and any other aforementioned virus in repeat diagnostics is not seen, a conclusion is drawn on the ineffectiveness of the therapy applied in that period and the need to change the antiviral therapy scheme.

HSV-1 = assay: IIF of patients' blood immunocytes: cells infected with herpes type 1 virus
Source text: […]

[1] = Free-radical acidization of lipids, serum indicators of treated patient; details: Example 1, after Valacyclovir with Nitrosorbidum and Corinfar
[2] = Hemodynamic indicators (tetrapolar rheography) of treated patient; details: Example 1, after Valacyclovir with Nitrosorbidum and Corinfar
[3] = Electrocardiogram indices of treated patient; details: Example 1, after Valacyclovir with Nitrosorbidum and Corinfar
[4] = Clinical condition of treated patient with ischemic heart disease
Epstein-Barr virus = assay: IIF of patients' blood immunocytes: cells infected with Epstein-Barr virus
Procedure: as §1

[5] = Blood serum lipid complex (lipidogram) of treated patients
[6] = Example 2, after Valacyclovir 3 courses of 7 days, before 50% of cells infected

SMILES: CC(C)[C@H](N)C(=O)OCCOCn1cnc2c(=O)[nH]c(N)nc21 [Valacyclovir]
- blood immunocytes infected with CMV (IIF) (cytomegalovirus; Example 1, after Valacyclovir with Nitrosorbidum and Corinfar, before 60% of cells infected): 20%
- CMV in the blood immunocytes (IIF) (cytomegalovirus; [6]): not present
- immunocytes infected with cytomegalovirus (IIF) (cytomegalovirus; Example 3, after Valacyclovir 5 courses of 7 days, before 50% of cells infected): 10%
- cytomegalovirus antigens in immunocytes, repeat IIF study (cytomegalovirus; Example 4, two months after combination therapy Valacyclovir with immunoglobulin and Laferobion, before 30% of cells infected): did not discover antigens
- immunocytes infected with HSV-1 (IIF) (HSV-1; Example 3, after Valacyclovir 5 courses of 7 days, before 70% of cells infected): 30%
- herpes type 1 virus antigens in immunocytes, repeat IIF study (HSV-1; Example 4, two months after combination therapy Valacyclovir with immunoglobulin and Laferobion, before 60% of cells infected): did not discover antigens
- triethynoid conjugates ([1]; before 0.23): 0.14 mcmol/ml
- serum malondialdehyde ([1]; before 0.50): 0.31 mcmol/ml
- diethynoid conjugates ([1]; before 1.332): 0.70 mcmol/ml
- a-tocopherol content ([1]; before 2.69): 4.32 mcmol/ml
- glutathione reductase activity ([1]; before 12.4): 22.0 mcmol/l h
- capacity of the left ventricle ([2]; before 2.02): 2.29 W
- energy loss ([2]; before 15.96): 10.37 conditional units
- specific peripheral resistance ([2]; before 74.53): 65.97 conditional units
- flow rate ([2]; before 126.5): 169.71 mL/s
- total peripheral vascular resistance ([2]; before 2917.9): 2673.6 dyn s cm^−5
- NST on the electrocardiogram ([3]; before 10.0): 0
- SST on the electrocardiogram ([3]; before 11.0): 0
- T index on the electrocardiogram ([3]; before 35.0): 0
- patient's condition ([4]; Example 1, within seven weeks, Valacyclovir with Nitrosorbidum and Corinfar): improved significantly
- angina pain and shortness of breath ([4]; Example 1, within seven weeks, Valacyclovir with Nitrosorbidum and Corinfar, nitroglycerine tablets not used): not present
- lipidogram, peroxide acidization of lipids, electrocardiography and tetrapolar rheography indicators ([4]; summary of the examples, standard treatment scheme combined with Valacyclovir): normalized
- blood immunocytes infected with EBV (IIF) (Epstein-Barr virus; Example 1, after Valacyclovir with Nitrosorbidum and Corinfar, before 70% of cells infected): 50%
- blood immunocytes infected with EBV (IIF) (Epstein-Barr virus; [6]): 10%
- Epstein-Barr virus antigens in immunocytes, repeat IIF study (Epstein-Barr virus; Example 4, two months after combination therapy Valacyclovir with immunoglobulin and Laferobion, before 50% of cells infected): did not discover antigens
- total cholesterol in blood serum ([5]; Example 1, patient one, after Valacyclovir 1.0 g three times a day with Nitrosorbidum and Corinfar, before 6.71): 3.26 mmol/L
- cholesterol/HDL ([5]; Example 1, after Valacyclovir with Nitrosorbidum and Corinfar, before 1.17): 1.20 mmol/L
- LDL ([5]; Example 1, after Valacyclovir with Nitrosorbidum and Corinfar, before 1.55): 0.47 mmol/L
- triglycerides in blood serum ([5]; Example 1, after Valacyclovir with Nitrosorbidum and Corinfar, before 3.4): 1.04 mmol/L
- cholesterol/LDL ([5]; Example 1, after Valacyclovir with Nitrosorbidum and Corinfar, before 3.99): 3.68 mmol/L
- atherogenesis index ([5]; Example 1, after Valacyclovir with Nitrosorbidum and Corinfar, before 4.74): 3.38
- b-lipoproteins in blood serum ([5]; Example 1, after Valacyclovir with Nitrosorbidum and Corinfar, before 770): 310 conditional units
- triglycerides ([5]; Example 2, after Valacyclovir 1.0 g 3×/day for 3 courses of 7 days, before 1.55): 1.3 mmol/L
- total cholesterol ([5]; Example 2, after Valacyclovir 1.0 g 3×/day for 3 courses of 7 days, before 4.9): 4.7 mmoles/1
- total cholesterol ([5]; Example 3, after Valacyclovir 1 g 3×/day for 5 courses of 7 days with 7-day intervals, before 5.6): 4.9 mmol/L
- triglycerides ([5]; Example 3, after Valacyclovir 1 g 3×/day for 5 courses of 7 days, before 2.55): 1.95 mmol/L
- triglycerides ([5]; Example 4, after combination therapy Valacyclovir with immunoglobulin and Laferobion, before 1.4): 1.3 mmoles/1
- total cholesterol ([5]; Example 4, after combination therapy: Valacyclovir 1.0 g 3 times a day, three courses of seven days, with immunoglobulin and Laferobion, before 3.9): 1.5 mmoles/1

SMILES: CCC(C)(C)C(=O)O[C@H]1C[C@@H](C)C=C2C=C[C@H](C)[C@H](CC[C@@H]3C[C@@H](O)CC(=O)O3)[C@H]21 [simvastatin]
- total cholesterol ([5]; Example 2, patient two, after six months of simvastatin 10 mg/day (with metoprolol, enalapril, aspirin), goal indicator 5.0 mmoles/l): 4.9 mmoles/1
- triglycerides ([5]; Example 2, after six months of simvastatin 10 mg/day): 1.55 mmol/L
- total cholesterol ([5]; Example 3, patient, after five months of simvastatin 10 mg/day (with metoprolol, aspirin), goal indicator 5.0 mmoles/l): 5.6 mmoles/1
- triglycerides ([5]; Example 3, after five months of simvastatin 10 mg/day): 2.55 mmol/L
- total cholesterol ([5]; Example 4, patient one, after six months of Zocor 20 mg/day (with Corvitol, Renitec, aspirin), goal indicator 4.0 mmoles/l): 3.9 mmoles/1
- triglycerides ([5]; Example 4, after six months of Zocor 20 mg/day): 1.4 mmol/L

— patent publication US20120129152A1, “Diagnostic method for the prediction of the development of and control over the effectiveness of treatment of cardiovascular illnesses” (priority 2010, published 2012)
